The source of these data is publication PMC9027581, “Characterization of Constituents with Potential Anti-Inflammatory Activity in Chinese Lonicera Species by UHPLC-HRMS Based Metabolite Profiling” (Metabolites, 2022).

Each structure is given as a SMILES string.

The test system of data set [1] is IL-8 expression. Put plainly: IL-8 expression in LPS-stimulated HUVECtert cells. Format: cell-based. To be noted: for IL-8 % Inhibition (30 µM) / inhibition at 30 µM / IC50: HUVECtert cells stimulated with LPS; for IL-8 % Inhibition (30 µM) / inhibition at 30 µM: means ± SD of 5 replicates, b: one sample pooled from the 5 replicates; for effect on IL-8 expression: pure compound, screening 30 µM. Here is the method:
(§1) To evaluate the pharmacological activity of the extracts, all extracts were assayed in three different cellular in vitro models that are relevant in the context of inflammation. […] In these cells, the potential impact of the extracts on cell viability was assessed (Figure 2C).
(§2) Assays were performed as previously described. Extracts were dissolved in dimethyl sulfoxide (DMSO) and further diluted in cell culture medium to obtain a final concentration of 50 µg/mL; DMSO at the respective final concentration (<0.1%) was used as vehicle control in each assay. OPLS-DA candidate compounds were also dissolved in DMSO to obtain a final screening concentration of 30 µM.
[…] Impact of test samples on cell viability was determined after 6 h of stimulation by XTT. […] After incubation for 2 h, absorbance was measured at 450 nm. Samples decreasing cell viability by more than 30% were considered to negatively influence cell viability.
(§3) To determine the IC50 values, pure compounds showing significant inhibitory activity at the screening concentration were tested at 5–10 concentrations, each with 4 replicates.

Data set [2] relates to NF-κB. Nature of the data set: NF-κB-driven luciferase reporter gene transactivation in TNF-α-stimulated HEK293/NF-κB-luc cells. Format: cell-based. To be noted: for NFκB % Inhibition (30 µM) / inhibition at 30 µM / IC50: HEK/NFκB-luc cells stimulated with TNF-α; for NFκB % Inhibition (30 µM) / inhibition at 30 µM: means ± SD of 4 replicates; for effect on NF-κB activation: pure compound, screening 30 µM; for inhibition at 30 µM / IC50: Homo sapiens, HEK293. Here is the method:
as §1, §2
Transactivation activity of a NF-κB-driven luciferase reporter gene was determined in TNF-α (2 ng/mL)-stimulated HEK293/NF-κB-luc cells (Panomics, RC0014), using 5 µM parthenolide (Sigma-Aldrich, St. Louis, MO, USA) as positive control. Differences in cell viability were detected by comparing the fluorescence of vehicle-treated cells and cells treated with sample solutions upon staining with CellTracker Green CMFDA (C2925; Invitrogen), a fluorescent probe that is retained inside living cells. Screening samples were tested in three independent experiments, each performed in quadruplicate.
as §3
For orientation: Reporter assays use an easily measured gene product as a stand-in for the process of interest.

Data set [3] deals with NO production. Put plainly: NO release from LPS/IFN-γ-stimulated RAW 264.7 macrophages (Griess). To be noted: for NO % Inhibition (30 µM) / inhibition at 30 µM: means ± SD of 3 experiments in duplicates; for effect on NO production: pure compound, screening 30 µM. The format is cell-based, mouse. Here is the method:
as §1, §2
After removing 50 µL of the supernatants to react with Griess reagent (Sigma Aldrich), cells were incubated with XTT reagent (XTT proliferation kit II, Sigma Aldrich). NO production (Griess reaction) and metabolic activity of the cells (XTT formazan product) were photometrically measured. Tests were performed in three independent experiments, each in duplicate.
as §3
On the technique in general: The Griess reaction detects nitrite, a stable product of nitric oxide.

Data set [4] concerns HUVECtert cells. Nature of the data set: Cell viability of HUVECtert cells (XTT). The format is cell-based. Details: key: ^+ compound significantly impaired cell viability at concentration of 30 µM. The following applies: 30 µM, decrease of viability by more than 30%. Here is the method: Effects on IL-8 expression were tested in hTERT-immortalized HUVECtert cells stimulated with lipopolysaccharide (LPS, 100 ng/mL, Sigma-Aldrich), with BAY 11-7082 (5 µM) as positive control. Activity screening was performed in sextuplicate. Impact of test samples on cell viability was determined after 6 h of stimulation by XTT. Incubation medium was removed, and 40 µL serum-free medium, containing XTT (Thermo Fisher Scientific, final concentration 200 µg/mL) and phenazine methyl sulfate (TCI Europe N.V., final concentration: 25 µM) were added to each well. After incubation for 2 h, absorbance was measured at 450 nm. Samples decreasing cell viability by more than 30% were considered to negatively influence cell viability.
On the technique in general: Tetrazolium dyes change colour on reduction, which living cells bring about.

The mark [5] stands for this setting: LPS/IFNγ-stimulated RAW macrophages.
[6] abbreviates: Mus musculus, Macrophage, LPS/IFNγ-stimulated RAW macrophages.

Consider `C=C[C@H]1[C@H](O[C@@H]2O[C@H](CO)[C@@H](O)[C@H](O)[C@H]2O)OC=C(C(=O)OC)[C@H]1CC(=O)O` [Compound 4, Secoxyloganin, reference compound], for which the “IL-8 % Inhibition (30 µM)” value in data set [1] (30 µM) is −0.96 ± 6.01%. In addition, in data set [2] (30 µM), the “NFκB % Inhibition (30 µM)” value is −17.25 ± 9.25%. In data set [3] (setting [5]), the “NO % Inhibition (30 µM)” value turned out to be 5.85 ± 4.58%.
With `O=c1cc(-c2ccc(O)c(O)c2)oc2cc(O[C@@H]3O[C@H](CO)[C@@H](O)[C@H](O)[C@H]3O)cc(O)c12` [Compound 7, luteolin-7-O-glucoside, reference compound], in data set [1] (30 µM), the “IL-8 % Inhibition (30 µM)” value is 7.42 ± 2.04%. In addition, the “effect on IL-8 expression” value in data set [1] is reported as “no activity”. Also, in data set [2] (30 µM), the “NFκB % Inhibition (30 µM)” value is recorded as 0.68 ± 4.29%. For the same molecule, the “effect on NF-κB activation” value in data set [2] is listed as “no activity”. For the same molecule, the “NO % Inhibition (30 µM)” value in data set [3] (setting [5]) came out at 4.68 ± 9.82%. Moreover, the “effect on NO production” value in data set [3] is “no activity”.
Take `O=c1cc(-c2ccc(O)c(O)c2)oc2cc(O)cc(O)c12` [Compound 18, luteolin, reference compound]: the results for the inhibition at 30 µM in data set [1] (30 µM), in data set [2] (30 µM) and in data set [3] (setting [6]) were 74.8 ± 2.15%, 95.83 ± 0.01% and 56.4 ± 12.7%, respectively. Further, the half-maximal inhibitory concentration (IC50) (in general, the point on the concentration scale where inhibition reaches its midpoint) in data set [2] stood at 6.84 µM; in data set [3] (setting [6]), 31.8 µM.
Regarding `O=c1cc(-c2ccc(O)cc2)oc2cc(O)cc(O)c12` [Compound 21, apigenin], the inhibition (usually the change of the read-out against control, counted positive when it falls) at 30 µM in data set [1] (30 µM) worked out at 64.8 ± 3.03%; in data set [3] (setting [6]), 24.3 ± 10.8%. For the same molecule, the IC50 in data set [1] amounted to 18.9 µM.
On to `COc1cc(-c2cc(=O)c3c(OC)cc(O)cc3o2)cc(OC)c1OC` [Compound 22, 7-hydroxy-5-methoxy-2-(3,4,5-trimethoxyphenyl)-chromen-4-one], for which the figures for the inhibition at 30 µM in data set [1] (30 µM), in data set [2] (30 µM) and in data set [3] (setting [6]) were 13.2 ± 2.49%, 51.1 ± 2.86% and 8.22 ± 11.9%, respectively. The “effect on NF-κB activation” value in data set [2] (listed as 7-hydroxy-5,3′,4′,5′-tetramethoxyflavone) is listed as “weak inhibition”.
Regarding `O=c1cc(-c2ccc(O)cc2)oc2c(-c3c(O)cc(O)c4c(=O)cc(-c5ccc(O)cc5)oc34)c(O)cc(O)c12` [Compound 26, 5,7,5′,7,-Tetrahydroxy-2,2′-bis-(4-hydroxy-phenyl)-[8,8′]bichromenyl-4,4′-dione], the inhibition at 30 µM in data set [1] (30 µM) was -2.05 ± 3.02%; in data set [2] (30 µM) it was 3.42 ± 3.15%; in data set [3] (setting [6]), 9.61 ± 11.4%.
`COc1cc(-c2cc(=O)c3c(O)cc(O)c(-c4c(O)cc(O)c5c(=O)cc(-c6ccc(O)cc6)oc45)c3o2)ccc1O` [Compound 27, 5,7,5′,7,-Tetrahydroxy-2-(4-hydroxy3-methoxy-phenyl)-2′-(4-hydroxy-phenyl)-[8,8′]bichromenyl-4,4′-dione]: the inhibition at 30 µM in data set [1] (30 µM) came to 3.5 ± 4.58%; in data set [2] (30 µM), 78.1 ± 8.86%; in data set [3] (setting [6]), 1.45 ± 7.78%. The molecule further gave an IC50 in data set [2] of 19.6 µM. In addition, the “effect on NF-κB activation” value in data set [2] is listed as “moderately inhibited”.
For `COc1cc(-c2cc(=O)c3c(O)cc(O)c(-c4c(O)cc(O)c5c(=O)cc(-c6ccc(O)c(OC)c6)oc45)c3o2)ccc1O` [Compound 29, 5,7,5′,7,-Tetrahydroxy-2,2′-bis-(4-hydroxy-3-methoxy-phenyl)-[8,8′]bichromenyl-4,4′-dione], the figures for the inhibition at 30 µM in data set [1] (30 µM), in data set [2] (30 µM) and in data set [3] (setting [6]) were 2.97 ± 9.92%, 31.2 ± 15.5% and -0.85 ± 3.84%, respectively. Besides, the “NF-κB Activity” value in data set [2] (class from Table 5 data, 30 µM) is given as “(a)”.
For the molecule `O=c1cc(-c2ccc(O)c(-c3c(O)cc(O)c4c(=O)cc(-c5ccc(O)cc5)oc34)c2)oc2cc(O)cc(O)c12` [Compound 32, amentoflavone, reference compound], the inhibition at 30 µM in data set [1] (30 µM) was 9.35 ± 2.78%; in data set [2] (30 µM), 90.8 ± 3.43%; in data set [3] (setting [6]), 7.06 ± 10.6%. Moreover, half-maximal inhibition in data set [2] (IC50) was put at 6.45 µM. Besides, the “effect on NF-κB activation” value in data set [2] was “potently inhibited”.
Consider `COc1ccc(-c2cc(=O)c3c(O)cc(O)c(-c4cc(-c5cc(=O)c6c(O)cc(O)cc6o5)ccc4O)c3o2)cc1` [Compound 33, podocarpusflavone A, reference compound], for which the figures for the inhibition at 30 µM in data set [1] (30 µM), in data set [2] (30 µM) and in data set [3] (setting [6]) were 40.2 ± 29.8%, 99.2 ± 1.25% and 3.42 ± 3.94%, respectively. Besides, the figures for the IC50 in data set [1] and in data set [2] were 47.9 µM and 3.44 µM, respectively. Also, in data set [1], the “effect on IL-8 expression” value is on record as “moderately inhibited”. Besides, in data set [2], the “effect on NF-κB activation” value is listed as “potently inhibited”.
Consider `C=Cc1c(C)c2cc3nc(c4c5[nH]c(cc6nc(cc1[nH]2)C(C)=C6CC)c(C)c5C(=O)[C@@H]4C(=O)OC)[C@@H](CCC(=O)O)[C@@H]3C` [Compound 52, pheophorbide A, reference compound], for which the inhibition at 30 µM in data set [1] (30 µM) worked out at 95.8%; in data set [2] (30 µM), 74.7 ± 13.6%; in data set [3] (setting [6]), 5.48 ± 7.55%. Also, in data set [1] (class from Table 5 data, 30 µM), the “IL-8 Activity” value is “a/ct”. Also, the “effect on IL-8 expression” value in data set [1] is on record as “inhibited IL-8 production”. This molecule also registered an IC50 in data set [2] of 3.04 µM. Also, the “effect on NF-κB activation” value in data set [2] was “pronounced inhibition”. The “effect on NO production” value in data set [3] is reported as “did not inhibit”. Also, the “impaired cell viability (flag, IL-8 assay)” value in data set [4] is reported as “+”.
